Test results reported in publication PMC5882139, “Functional examination of novel kisspeptin phosphinic peptides” (PLoS ONE, 2018).
Ends that are not written are not given here.

Columns and labels:
MMP-2 = MMP-2 activity, MMP colorimetric drug discovery kit; format: biochemical; conditions: 1.3 μM, 37°C 1 hour, 412 nm; three independent experiments
Protocol: (§1) The activity of MMPs was measured using MMP colorimetric drug discovery kits in a 96-well microtiter plate according to the manufacturer’s instructions. Different concentrations of the phosphinic peptides or 1.3 μM N-Isobutyl-N-(4-methoxyphenylsulfonyl)glycyl hydroxamic acid (NNGH), a positive inhibitor for MMPs, were, respectively, added to the assay mixtures containing MMP enzyme (MMP-2 or MMP-9; 9 mU/μL). The plates were then incubated at 37°C for 1 hour for enzyme reaction. After that, a final concentration of 100 μM colorimetric substrate (Ac-PLG-[2-mercapto-4-methyl-pentanoyl]-LGOC2H5) was added to each well and the plates were then read at 412 nm every minute for at least 20 minutes using PHERAStar FS microplate reader. The full enzyme activity (control) was measured without addition of any inhibitor or tested peptides. The reaction velocity (V) was determined by calculating the slope of the fitted line to the linear portion of the data collected. The slope of blank (without addition of MMP enzyme) was subtracted from all samples and the remaining activity of the enzyme was calculated using following formula.
(§2) %Enzymeactivity=V(inhibitor)/V(control)*100
(§3) Fig 7 Effect of KP phosphinic peptides on MMP-2 (A) or MMP-9 (B) enzyme activity. […] The maximum activity (control) was measured in the absence of inhibitors. […]

MMP-9 = MMP-9 activity, MMP colorimetric drug discovery kit; format: biochemical; conditions: 1.3 μM, 37°C 1 hour, 412 nm; three independent experiments
Protocol: as §1, §2, §3

cancer cell metastasis = conditions: ref [17]; cited from earlier work
Description: KPs inhibit metastasis in a variety of cancers, including melanoma, breast, endometrial, gastric ovarian cancers, and others. Therefore, KP analogues may act as inhibitors of cancer metastasis which is the major cause of cancer death.

| Compound | inhibition of MMP-2 activity by positive control (MMP-2) | inhibition of MMP-9 activity by positive control (MMP-9) | inhibition of cancer cell metastasis (cancer cell metastasis) |
| --- | --- | --- | --- |
| COc1ccc(S(=O)(=O)N(CC(=O)NO)CC(C)C)cc1 [NNGH, N-Isobutyl-N-(4-methoxyphenylsulfonyl)glycyl hydroxamic acid] | almost completely inhibited | almost completely inhibited | – |
| KP-54: endogenous 54-amino acid peptide ligand of kisspeptin receptor (GTSLSPPPESSGSPQQPGLSAPHSRQIPAPQGAVLVQREKDLPNYNWNSFGLRF; ends and bridges not checked; UniProt Q15726 68-121, looked up) | – | – | inhibit cancer cell metastasis |
